Patent US7563789B2, “1-Adamantyl chalcones for the treatment of proliferative disorders” (priority 2002, dated 2009)
Read-outs that look alike come from different tables or passages of the source.

How the values were obtained:
[1] = test system: MDA-MB435 (ER-negative) human breast cancer cell line; assay: Dose response / cell viability (LC50) in MDA-MB435 breast cancer cells
Protocol: 1. […] Biological activity was determined by relative LC50 values of these agents.
(§1) 2. The compounds in series I, II, III, and IV were examined against two different types of breast cancer cell lines which included estrogen receptor positive (MCF-7) and estrogen receptor negative (MDA-MB435) cell lines.
(§2) 3. Toxicity of the compounds for normal breast epithelial cells were examined by comparing LC50 values in normal breast epithelial cell line (MCF-10) against LC50 values in cancer cell lines. LC50 is the concentration that is lethal to 50 percent of the cells. LC50 values were estimated from a dose response graph.
(§3) Two human breast cancers cell lines (MCF-7 and MDA-MB435) and a normal breast epithelial cell line (MCF-10) were obtained from ATCC (American Type Culture Collection) to test against the series of compounds and the data were examined for the compounds' relative antiproliferation profiles. All of these cell lines were derived from epithelial tissue. These cell lines were selected because they allowed our laboratory to investigate the effects of the compounds in: 1) breast neoplasms whose growth is stimulated by the presence of estrogen, MCF-7 (ER-positive); 2) Breast neoplasms whose growth is not stimulated by estrogen MDA-MB435 (ER-negative); and 3) A non-cancer cell line (MCF-10) to compare relative toxicities of the compounds.

[2] = test system: MCF-7 (ER-positive) human breast cancer cell line; assay: cells
Protocol: 1. A dose response curve for compounds, series I, II, III, IV, over a concentration range of 1 mM to 1 nM was prepared in order to detect the doses where possible biological activity might exist. Biological activity was determined by relative LC50 values of these agents.
as §1, §2, §3

[3] = test system: normal breast epithelial cell line MCF-10; assay: Toxicity for normal breast epithelial cells; assay type: cell-based; conditions: MCF-10 cells; highest concentration tested (1 mM); average values
Protocol: 3. […] LC50 values were estimated from a dose response graph.
The relative toxicity of the synthesized compounds (47a-e) against normal breast cells was studied by exposing normal breast epithelial cell line MCF-10 to our synthesized compounds in concentration ranges from 1 nM to 1 mM. These cells were likewise exposed to equivalent concentrations of Tamoxifen, Genestein, and Doxyrubicin. […] At concentrations lower than 10^−7 M, these compounds appeared to enhance the viability of cells.

[4] = test system: TGF stimulated growth of MDA-MB 435 cells
Protocol: 4. The possible mechanism of action of these compounds was explored by examining the ability of these agents to reverse growth factor stimulated proliferation. The ability of these compounds to attenuate EGF and TGF stimulated growth was tested.
(§4) Both MCF-7 and MDA-MB435 cells contain EGF-R and TGF-R. In an effort to examine the role of EGF-R and TGF-R in the proliferation of MCF-7 and MDA-MB435, these cells were stimulated to growth stimulatory at 50 percent (GS50) values.
(§5) In all cases 10 ml of growth factor was administered at a concentration of 1 ng/ml.

[5] = test system: EGF stimulated growth of MCF-7 cells; assay type: cell-based, human
Protocol: (§6) The possible mechanism of action of these compounds was explored by examining the ability of these agents to reverse growth factor stimulated proliferation. The ability of these compounds to attenuate EGF and TGF stimulated growth was tested.
as §4, §5

[6] = test system: TGF-α stimulated growth of MCF-7 cells; assay: Reversal of TGF-α stimulated growth of MCF-7 cells; assay type: cell-based
Protocol: as §6, §4, §5

[7] = test system: EGF stimulated growth of MDA-MB435 cells; assay: Reversal of EGF stimulated growth of MDA-MB435 cells; assay type: cell-based; conditions: EGF (1 ng/ml) serum and non-serum stimulated growth of MDA-MB435 cells; 10^−9 to 10^−3 M
Protocol: as §6, §4, §5

[8] = test system: Normal human mammary epithelial (HME) cells stimulated by EGF; conditions: read-out: concentration at which cell growth is inhibited by 50% (IC50); cited from earlier work
[9] = Homo sapiens, MCF7, read-out: LC50

## CC(C)c1ccc(/C=C/C(=O)C23CC4CC(CC(C4)C2)C3)cc1 [Compound 43f]
[1]; MDA-MB435 cells
  effect on cell viability (in words): altered cell viability only at much higher concentrations than required for MCF-7 cells
[2]
  decrease of cell viability: 20%

## O=C(/C=C/c1ccccn1)C12CC3CC(CC(C3)C1)C2 [Compound 47a]
[3]
  % cell viability: 103%
[4]; TGF (1 ng/ml) non-serum stimulated growth of MDA-MB 435 cells
  concentration reversing stimulated growth back to control values: 10 µM
[4]; TGF (1 ng/ml) serum stimulated growth of MDA-MB 435 cells
  concentration reversing stimulated growth back to control values: 50 µM
[5]; EGF-non serum stimulated growth of MCF-7 cells, read-out: IC50, reversal of stimulated growth back to control values
  IC50: 50 µM
[5]; EGF-serum stimulated growth of MCF-7 cells
  concentration reversing stimulated growth back to control values: 10 µM
[6]; MCF-7, TGF 1 ng/ml, non-serum stimulated, reversal value, read-out: LC50 Data for Administered Drug, Non-Serum Stimulated
  CC50: 50 µM
[6]; TGF-α serum and non-serum stimulated growth of MCF-7 cells, 10^−9 to 10^−3 M
  reversal of stimulated growth (in words): neither TGF-α serum stimulated nor non-serum stimulated growth of MCF-7 cells significantly reversed
[7]
  reversal of stimulated growth (in words): Neither EGF (1 ng/ml) serum nor non-serum stimulated growth of MDA-MB435 cells was reversed

## O=C(/C=C/c1cccnc1)C12CC3CC(CC(C3)C1)C2 [Compound 47b]
[3]
  % cell viability: 124%
[1]
  CC50: 5 µM

## O=C(/C=C/c1ccncc1)C12CC3CC(CC(C3)C1)C2 [Compound 47c]
[3]
  % cell viability: 102%

## Cc1cccc(/C=C/C(=O)C23CC4CC(CC(C4)C2)C3)n1 [Compound 47d]
[3]
  % cell viability: 94%

## O=C(/C=C/c1ccnc2ccccc12)C12CC3CC(CC(C3)C1)C2 [Compound 47e]
[3]
  % cell viability: 98%
[2]
  CC50: 50 µM
[2]; MCF-7 cells, versus tamoxifen
  LC50 increase over tamoxifen: 10 fold

## COc1cccc2c1C(=O)c1c(O)c3c(c(O)c1C2=O)C[C@@](O)(C(=O)CO)C[C@@H]3O[C@H]1C[C@H](N)[C@H](O)[C@H](C)O1 [Doxyrubicin]
[2]; [9]
  CC50: 500 µM

## O=c1c(-c2ccc(O)cc2)coc2cc(O)cc(O)c12 [Genestein, Genistein]
[1]; Homo sapiens, MDA-MB-435, read-out: LC50
  CC50: 5000 µM
[1]; MDA-MB435 cells, in the concentration range measured (1 mM to 1 nM)
  LC50 (in words): no LC50 was obtained
[8]
  IC50: 1 µM

## CC/C(=C(\c1ccccc1)c1ccc(OCCN(C)C)cc1)c1ccccc1 [Tamoxifen]
[1]; MDA-MB435 cells
  effect on cell viability (in words): ineffective at lower concentrations
[2]; [9]
  CC50: 500 µM
